According to the kinase profiling compilation of Christmann-Franck et al. (2016):

Columns and labels:
Assay in all cases: radiometric filter-binding kinase assay
PIM2 (human) = PIM2 (human) (UniProt Q9P1W9)
TBK1 (human) = TBK1 (human) (UniProt Q9UHD2)
MAP3K7 TAB1 (human) = MAP3K7 TAB1 (human) (UniProt Q15750+O43318)
MAPK3 (human) = MAPK3 (human) (UniProt P27361)
RPS6KA3 KD1 KD2 (human) = RPS6KA3 KD1 KD2 (human) (UniProt P51812)
CSNK2A1 (human) = CSNK2A1 (human) (UniProt P68400)
CLK2 (human) = CLK2 (human) (UniProt P49760)
STK3 (human) = STK3 (human) (UniProt Q13188)
Sequence of STK3 (human) (Q13188 whole entry, looked up): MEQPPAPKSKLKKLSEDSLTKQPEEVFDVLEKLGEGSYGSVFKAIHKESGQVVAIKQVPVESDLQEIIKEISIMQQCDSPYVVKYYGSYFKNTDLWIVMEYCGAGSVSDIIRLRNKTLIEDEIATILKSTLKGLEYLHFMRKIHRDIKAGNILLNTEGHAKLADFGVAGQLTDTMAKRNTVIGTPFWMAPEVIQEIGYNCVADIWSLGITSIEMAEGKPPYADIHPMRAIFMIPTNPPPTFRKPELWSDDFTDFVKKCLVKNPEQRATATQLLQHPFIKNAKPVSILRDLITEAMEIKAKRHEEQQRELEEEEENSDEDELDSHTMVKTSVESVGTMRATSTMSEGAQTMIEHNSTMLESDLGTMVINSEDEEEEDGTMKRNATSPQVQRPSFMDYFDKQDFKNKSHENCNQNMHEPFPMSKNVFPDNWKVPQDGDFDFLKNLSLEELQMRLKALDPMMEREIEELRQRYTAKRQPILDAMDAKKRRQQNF

MAP2K6 (human) = MAP2K6 (human) (UniProt P52564)
MAP3K11 (human) = MAP3K11 (human) (UniProt Q16584)
[1] = system: AKT1 (human), P31749 [S473D]
MKNK2 (human) = MKNK2 (human) (UniProt Q9HBH9)
PLK1 (human) = PLK1 (human) (UniProt P53350)
DYRK3 (human) = DYRK3 (human) (UniProt O43781)
DAPK1 (human) = DAPK1 (human) (UniProt P53355)
IRAK4 (human) = IRAK4 (human) (UniProt Q9NWZ3)
EPHB3 (human) = EPHB3 (human) (UniProt P54753)
Sequence of EPHB3 (human) (P54753 whole entry, looked up): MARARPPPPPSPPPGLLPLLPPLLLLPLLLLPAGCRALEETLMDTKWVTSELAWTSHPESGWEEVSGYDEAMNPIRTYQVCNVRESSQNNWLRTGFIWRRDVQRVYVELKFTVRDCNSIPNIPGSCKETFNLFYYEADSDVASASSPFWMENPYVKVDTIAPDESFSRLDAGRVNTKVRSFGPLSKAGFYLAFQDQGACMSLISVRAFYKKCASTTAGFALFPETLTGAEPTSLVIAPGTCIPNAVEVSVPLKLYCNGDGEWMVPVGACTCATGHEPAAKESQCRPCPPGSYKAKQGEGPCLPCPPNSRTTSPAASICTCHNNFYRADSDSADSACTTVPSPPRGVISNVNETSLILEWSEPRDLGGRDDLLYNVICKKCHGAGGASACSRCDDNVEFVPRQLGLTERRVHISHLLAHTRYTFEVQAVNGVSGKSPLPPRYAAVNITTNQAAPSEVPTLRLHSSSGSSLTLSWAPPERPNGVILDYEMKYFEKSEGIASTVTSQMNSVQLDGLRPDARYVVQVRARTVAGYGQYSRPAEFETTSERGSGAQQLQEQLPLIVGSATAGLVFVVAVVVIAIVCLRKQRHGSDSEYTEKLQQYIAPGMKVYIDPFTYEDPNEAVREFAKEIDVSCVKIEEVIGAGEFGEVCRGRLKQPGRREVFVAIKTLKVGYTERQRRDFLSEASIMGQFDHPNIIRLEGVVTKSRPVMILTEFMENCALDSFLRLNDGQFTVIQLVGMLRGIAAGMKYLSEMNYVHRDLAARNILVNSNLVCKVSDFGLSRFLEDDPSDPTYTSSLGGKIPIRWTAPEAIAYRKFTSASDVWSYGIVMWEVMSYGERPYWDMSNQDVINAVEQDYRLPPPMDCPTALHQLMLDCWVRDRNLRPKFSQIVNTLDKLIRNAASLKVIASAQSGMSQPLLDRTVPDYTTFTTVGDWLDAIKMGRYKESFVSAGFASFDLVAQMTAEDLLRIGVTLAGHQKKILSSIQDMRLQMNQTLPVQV

MAPK8 (human) = MAPK8 (human) (UniProt P45983)
Sequence of MAPK8 (human) (P45983 whole entry, looked up): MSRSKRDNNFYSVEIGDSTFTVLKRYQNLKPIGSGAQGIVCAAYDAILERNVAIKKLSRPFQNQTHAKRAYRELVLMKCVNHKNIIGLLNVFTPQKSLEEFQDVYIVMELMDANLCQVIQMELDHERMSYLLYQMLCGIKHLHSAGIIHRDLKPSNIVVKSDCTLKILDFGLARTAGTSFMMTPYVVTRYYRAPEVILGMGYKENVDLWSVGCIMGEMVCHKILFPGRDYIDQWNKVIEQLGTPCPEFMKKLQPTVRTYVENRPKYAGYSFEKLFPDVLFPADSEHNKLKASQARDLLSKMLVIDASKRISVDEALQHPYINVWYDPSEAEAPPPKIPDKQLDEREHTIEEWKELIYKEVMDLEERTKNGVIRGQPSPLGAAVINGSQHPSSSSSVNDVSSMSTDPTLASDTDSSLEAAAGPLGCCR

IKBKE (human) = IKBKE (human) (UniProt Q14164)
PIM3 (human) = PIM3 (human) (UniProt Q86V86)
[2] = system: RPS6KB1 (human), P23443 [T412E]
MAPK12 (human) = MAPK12 (human) (UniProt P53778)
Sequence of MAPK12 (human) (P53778 whole entry, looked up): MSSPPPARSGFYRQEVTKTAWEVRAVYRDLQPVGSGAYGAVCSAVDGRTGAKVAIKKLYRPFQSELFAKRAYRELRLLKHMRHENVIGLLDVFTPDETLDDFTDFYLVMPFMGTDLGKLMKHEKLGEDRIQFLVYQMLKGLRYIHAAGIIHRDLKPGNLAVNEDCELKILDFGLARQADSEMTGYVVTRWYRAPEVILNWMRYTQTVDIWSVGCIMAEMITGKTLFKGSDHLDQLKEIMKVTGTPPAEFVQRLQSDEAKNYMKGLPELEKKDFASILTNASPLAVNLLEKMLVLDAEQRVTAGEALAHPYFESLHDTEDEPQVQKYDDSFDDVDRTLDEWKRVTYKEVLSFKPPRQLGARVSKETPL

PIM1 (human) = PIM1 (human) (UniProt P11309)
Sequence of PIM1 (human) (P11309 whole entry, looked up): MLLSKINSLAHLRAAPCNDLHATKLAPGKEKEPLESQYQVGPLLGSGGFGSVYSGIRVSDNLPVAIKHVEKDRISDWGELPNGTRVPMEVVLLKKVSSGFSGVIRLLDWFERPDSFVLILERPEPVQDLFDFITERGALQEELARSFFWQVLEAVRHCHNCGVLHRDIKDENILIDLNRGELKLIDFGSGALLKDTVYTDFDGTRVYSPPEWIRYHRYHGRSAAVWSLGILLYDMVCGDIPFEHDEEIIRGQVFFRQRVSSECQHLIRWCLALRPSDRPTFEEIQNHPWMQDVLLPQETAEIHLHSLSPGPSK

ROCK2 (rat) = conditions: accession and sequence are those of the human protein
[3] = system: SGK1 (human), O00141 [S422D]
DYRK1A (human) = DYRK1A (human) (UniProt Q13627)
IKBKB (human) = IKBKB (human) (UniProt O14920)
Sequence of IKBKB (human) (O14920 whole entry, looked up): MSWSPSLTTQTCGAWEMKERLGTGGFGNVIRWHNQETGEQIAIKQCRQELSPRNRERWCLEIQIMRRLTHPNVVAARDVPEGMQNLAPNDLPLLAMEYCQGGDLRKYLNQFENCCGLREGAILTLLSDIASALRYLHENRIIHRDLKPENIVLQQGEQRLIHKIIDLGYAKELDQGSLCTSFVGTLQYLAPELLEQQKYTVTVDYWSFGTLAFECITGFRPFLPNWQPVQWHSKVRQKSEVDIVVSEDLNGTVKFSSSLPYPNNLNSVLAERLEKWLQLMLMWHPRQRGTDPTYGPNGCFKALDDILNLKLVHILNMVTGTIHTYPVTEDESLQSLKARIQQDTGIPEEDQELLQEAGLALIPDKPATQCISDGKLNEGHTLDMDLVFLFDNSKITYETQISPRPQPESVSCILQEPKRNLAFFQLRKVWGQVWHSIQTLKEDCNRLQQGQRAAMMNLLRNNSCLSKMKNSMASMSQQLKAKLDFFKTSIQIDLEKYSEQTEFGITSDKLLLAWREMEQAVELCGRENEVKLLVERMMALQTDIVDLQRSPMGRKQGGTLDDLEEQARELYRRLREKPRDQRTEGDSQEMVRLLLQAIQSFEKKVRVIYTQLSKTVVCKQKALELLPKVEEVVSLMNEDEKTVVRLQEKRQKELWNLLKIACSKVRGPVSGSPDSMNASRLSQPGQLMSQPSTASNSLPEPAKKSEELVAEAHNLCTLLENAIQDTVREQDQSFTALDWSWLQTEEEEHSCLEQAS

MAPK11 (human) = MAPK11 (human) (UniProt Q15759)
MAPK14 (human) = MAPK14 (human) (UniProt Q16539)
Sequence of MAPK14 (human) (Q16539 whole entry, looked up): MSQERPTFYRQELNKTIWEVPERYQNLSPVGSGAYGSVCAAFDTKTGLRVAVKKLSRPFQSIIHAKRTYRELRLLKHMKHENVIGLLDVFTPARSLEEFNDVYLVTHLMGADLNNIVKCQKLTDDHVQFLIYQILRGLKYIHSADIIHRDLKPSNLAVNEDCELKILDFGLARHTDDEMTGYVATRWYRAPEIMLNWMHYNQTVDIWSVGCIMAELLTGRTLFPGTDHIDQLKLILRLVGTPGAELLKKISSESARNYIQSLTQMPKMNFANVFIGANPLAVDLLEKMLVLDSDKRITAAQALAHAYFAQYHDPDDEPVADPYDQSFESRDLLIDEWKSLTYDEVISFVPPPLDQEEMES

NTRK1 (human) = NTRK1 (human) (UniProt P04629)
RPS6KA1 KD1 KD2 (human) = RPS6KA1 KD1 KD2 (human) (UniProt Q15418)
MAPKAPK3 (human) = MAPKAPK3 (human) (UniProt Q16644)
Sequence of MAPKAPK3 (human) (Q16644 whole entry, looked up): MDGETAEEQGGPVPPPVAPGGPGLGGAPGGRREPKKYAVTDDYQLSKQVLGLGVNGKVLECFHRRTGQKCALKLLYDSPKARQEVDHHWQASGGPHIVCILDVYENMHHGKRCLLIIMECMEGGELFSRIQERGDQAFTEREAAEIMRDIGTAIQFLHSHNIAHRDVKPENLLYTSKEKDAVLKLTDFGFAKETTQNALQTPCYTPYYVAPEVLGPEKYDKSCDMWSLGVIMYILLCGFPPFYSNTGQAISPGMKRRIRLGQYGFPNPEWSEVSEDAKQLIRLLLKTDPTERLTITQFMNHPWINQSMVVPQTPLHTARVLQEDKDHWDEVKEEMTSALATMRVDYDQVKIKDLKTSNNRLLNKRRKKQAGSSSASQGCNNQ

PAK4 (human) = PAK4 (human) (UniProt O96013)
BRSK2 (human) = BRSK2 (human) (UniProt Q8IWQ3)

Sequence of MAPK3 (human) (P27361 whole entry, looked up): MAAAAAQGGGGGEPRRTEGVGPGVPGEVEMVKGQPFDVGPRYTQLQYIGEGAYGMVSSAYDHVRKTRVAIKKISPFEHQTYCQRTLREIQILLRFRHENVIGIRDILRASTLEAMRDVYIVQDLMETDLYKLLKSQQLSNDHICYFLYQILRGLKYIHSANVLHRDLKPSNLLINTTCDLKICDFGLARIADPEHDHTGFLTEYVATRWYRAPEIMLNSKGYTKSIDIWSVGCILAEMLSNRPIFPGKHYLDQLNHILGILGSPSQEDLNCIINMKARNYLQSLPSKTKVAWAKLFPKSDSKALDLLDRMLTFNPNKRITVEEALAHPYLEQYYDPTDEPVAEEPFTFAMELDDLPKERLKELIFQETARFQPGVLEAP

Work on `CC1=C(CO)C(=O)O[C@@H]([C@@H](C)[C@H]2CC[C@H]3[C@@H]4C[C@H]5O[C@]56[C@@H](O)C=CC(=O)[C@]6(C)C4CC[C@]23C)C1` (stereo partly specified) yielded a residual activity (PIM2 (human); compound 0.1 µM) of 96%, a residual activity (PIM2 (human); compound 1.0 µM) of 102% and a residual activity (PIM2 (human); compound 10.0 µM) of 97%. The residual activity (TBK1 (human); compound 1.0 µM) was 107%, the residual activity (TBK1 (human); compound 10.0 µM) was 93% and the residual activity (MAP3K7 TAB1 (human); compound 0.1 µM) was 114%. The residual activity (MAP3K7 TAB1 (human); compound 1.0 µM) was 104%, the residual activity (MAP3K7 TAB1 (human); compound 10.0 µM) was 109% and the residual activity (MAPK3 (human); compound 0.1 µM) was 99%. For the same compound, the residual activity (MAPK3 (human); compound 1.0 µM) was 100%, the residual activity (MAPK3 (human); compound 10.0 µM) was 109% and the residual activity (RPS6KA3 KD1 KD2 (human); compound 0.1 µM) was 114%. For the same compound, the residual activity (RPS6KA3 KD1 KD2 (human); compound 1.0 µM) was 98%, the residual activity (RPS6KA3 KD1 KD2 (human); compound 10.0 µM) was 74% and the residual activity (CSNK2A1 (human); compound 0.1 µM) was 79%. The residual activity (CSNK2A1 (human); compound 1.0 µM) was 94%, the residual activity (CSNK2A1 (human); compound 10.0 µM) was 94% and the residual activity (CLK2 (human); compound 0.1 µM) was 88%. For the same compound, the residual activity (CLK2 (human); compound 1.0 µM) was 102%, the residual activity (CLK2 (human); compound 10.0 µM) was 94% and the residual activity (STK3 (human); compound 0.1 µM) was 123%. The residual activity (STK3 (human); compound 1.0 µM) was 126%, the residual activity (STK3 (human); compound 10.0 µM) was 129% and the residual activity (MAP2K6 (human); compound 0.1 µM) was 95%. For the same compound, the residual activity (MAP2K6 (human); compound 10.0 µM) was 109%, the residual activity (MAP3K11 (human); compound 0.1 µM) was 110% and the residual activity (MAP3K11 (human); compound 1.0 µM) was 110%. It also gave a residual activity (MAP3K11 (human); compound 10.0 µM) of 97%, a residual activity ([1]; compound 0.1 µM) of 118% and a residual activity ([1]; compound 1.0 µM) of 99%. It also gave a residual activity ([1]; compound 10.0 µM) of 105%, a residual activity (MKNK2 (human); compound 0.1 µM) of 99% and a residual activity (MKNK2 (human); compound 10.0 µM) of 126%. For the same compound, the residual activity (PLK1 (human); compound 0.1 µM) was 105%, the residual activity (PLK1 (human); compound 1.0 µM) was 101% and the residual activity (PLK1 (human); compound 10.0 µM) was 118%. It also gave a residual activity (DYRK3 (human); compound 0.1 µM) of 103%, a residual activity (DYRK3 (human); compound 1.0 µM) of 101% and a residual activity (DYRK3 (human); compound 10.0 µM) of 78%. It also gave a residual activity (DAPK1 (human); compound 0.1 µM) of 108%, a residual activity (DAPK1 (human); compound 1.0 µM) of 95% and a residual activity (DAPK1 (human); compound 10.0 µM) of 108%. It also gave a residual activity (IRAK4 (human); compound 1.0 µM) of 101%, a residual activity (IRAK4 (human); compound 10.0 µM) of 79% and a residual activity (EPHB3 (human); compound 0.1 µM) of 114%. It also gave a residual activity (EPHB3 (human); compound 1.0 µM) of 104%, a residual activity (EPHB3 (human); compound 10.0 µM) of 97% and a residual activity (MAPK8 (human); compound 0.1 µM) of 103%. The residual activity (MAPK8 (human); compound 1.0 µM) was 102%, the residual activity (MAPK8 (human); compound 10.0 µM) was 110% and the residual activity (IKBKE (human); compound 0.1 µM) was 96%. The residual activity (IKBKE (human); compound 1.0 µM) was 97%, the residual activity (IKBKE (human); compound 10.0 µM) was 61% and the residual activity (PIM3 (human); compound 0.1 µM) was 95%. It also gave a residual activity (PIM3 (human); compound 1.0 µM) of 110%, a residual activity (PIM3 (human); compound 10.0 µM) of 83% and a residual activity ([2]; compound 0.1 µM) of 99%. The residual activity ([2]; compound 1.0 µM) was 97%, the residual activity ([2]; compound 10.0 µM) was 69% and the residual activity (MAPK12 (human); compound 0.1 µM) was 114%. It also gave a residual activity (MAPK12 (human); compound 1.0 µM) of 116%, a residual activity (MAPK12 (human); compound 10.0 µM) of 103% and a residual activity (PIM1 (human); compound 0.1 µM) of 109%. It also gave a residual activity (PIM1 (human); compound 1.0 µM) of 103%, a residual activity (PIM1 (human); compound 10.0 µM) of 94% and a residual activity (ROCK2 (rat); compound 0.1 µM) of 103%. It also gave a residual activity (ROCK2 (rat); compound 1.0 µM) of 107%, a residual activity (ROCK2 (rat); compound 10.0 µM) of 112% and a residual activity ([3]; compound 0.1 µM) of 110%. It also gave a residual activity ([3]; compound 10.0 µM) of 103%, a residual activity (DYRK1A (human); compound 0.1 µM) of 92% and a residual activity (DYRK1A (human); compound 1.0 µM) of 94%. The residual activity (DYRK1A (human); compound 10.0 µM) was 100%, the residual activity (IKBKB (human); compound 0.1 µM) was 103% and the residual activity (IKBKB (human); compound 1.0 µM) was 103%. For the same compound, the residual activity (IKBKB (human); compound 10.0 µM) was 72%, the residual activity (MAPK11 (human); compound 0.1 µM) was 121% and the residual activity (MAPK11 (human); compound 10.0 µM) was 128%. It also gave a residual activity (MAPK14 (human); compound 0.1 µM) of 101%, a residual activity (MAPK14 (human); compound 1.0 µM) of 92% and a residual activity (MAPK14 (human); compound 10.0 µM) of 95%. It also gave a residual activity (NTRK1 (human); compound 0.1 µM) of 92%, a residual activity (NTRK1 (human); compound 1.0 µM) of 110% and a residual activity (NTRK1 (human); compound 10.0 µM) of 97%. The residual activity (RPS6KA1 KD1 KD2 (human); compound 0.1 µM) was 109%, the residual activity (RPS6KA1 KD1 KD2 (human); compound 1.0 µM) was 101% and the residual activity (RPS6KA1 KD1 KD2 (human); compound 10.0 µM) was 105%. The residual activity (MAPKAPK3 (human); compound 0.1 µM) was 120%, the residual activity (MAPKAPK3 (human); compound 1.0 µM) was 85% and the residual activity (MAPKAPK3 (human); compound 10.0 µM) was 47%. For the same compound, the residual activity (PAK4 (human); compound 0.1 µM) was 94%, the residual activity (PAK4 (human); compound 1.0 µM) was 104% and the residual activity (PAK4 (human); compound 10.0 µM) was 104%. The residual activity (BRSK2 (human); compound 0.1 µM) was 99%, the residual activity (BRSK2 (human); compound 1.0 µM) was 103% and the residual activity (BRSK2 (human); compound 10.0 µM) was 77%.
